The results in this text go back to paper PMC7037732, “Synthesis of Combretastatin A-4 and 3′-Aminocombretastatin A-4 derivatives with Aminoacid Containing Pendants and Study of their Interaction with Tubulin and as Downregulators of the VEGF, hTERT and c-Myc Gene Expression” (Molecules, 2020).

Molecules are shown by their SMILES.

The test system of assay [1] is MCF-7 (breast adenocarcinoma). Put plainly: Inhibition of cell proliferation (MTT), MCF-7. It counts as cell-based, human. To be noted: Homo sapiens, 48 h of treatment (footnote), average ±SD of three experiments.
For assay [2], the system named is HEK-293 (human embryonic kidney cells). The assay is described as follows: Inhibition of cell proliferation (MTT), nontumor HEK-293. To be noted: Homo sapiens, 48 h of treatment (footnote), average ±SD of three experiments. The class given is cell-based.
Another assay has as its system purified tubulin. The assay is described as follows: Critical concentration (CrC) for the assembly of purified tubulin in GAB. The class given is biochemical. The following applies: compound 27.5 μM, tubulin 25 μM, glycerol (GAB) and GTP assembly buffer; control 7.9 ± 1.2. Here is the method: The effect on the self-assembly of tubulin was determined by measuring the critical concentration (CrC).

A further assay concerns A-549 cells. Put plainly: Cell cycle distribution by flow cytometry. It counts as cell-based, human. To be noted: A-549, 24 h; for Effect on the cell cycle: concentration per compound as in Tables 6 and 7. A digest of the protocol: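 A-549 cells were harvested, fixed in cold 70% ethanol (30 min, −20 °C), then stained with 50 µg/mL propidium iodide plus 100 µg/mL RNase A in PBS for 20 min at room temperature in the dark. Flow cytometry used 488 nm excitation and 620 nm emission, giving the percentage of cells in G2/M.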

In the next assay the test system is VEGF gene. Put plainly: VEGF gene expression by RT-qPCR in HT-29 cells. The class given is cell-based, human. The method in brief:
(§1)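 HT-29 cells seeded at 1.5 × 10^5 per well, after 24 h exposed to compounds for 48 h at fixed single concentrations (15 μM for CA-4, otherwise nM to μM per derivative). Total RNA reverse-transcribed with oligo(dT)15; genes quantified by TaqMan RT-qPCR, β-actin as reference.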

A further assay concerns c-Myc gene. The assay is described as follows: c-Myc gene expression by RT-qPCR in HT-29 cells. The class given is cell-based, human. The method in brief: as §1
On the technique in general: Real-time PCR tracks product formation cycle by cycle.

Setting [3] is: Homo sapiens, HT-29, 48 h, 10 μM, control 100.
The mark [4] stands for this setting: HT-29, 48 h; discussion; concentration per compound.
Setting [5] is: Homo sapiens, HT-29, 48 h, 25 μM, control 100.
Where [6] appears, read: Homo sapiens, HT-29, 48 h, 2 nM, control 100.
Where [7] appears, read: Homo sapiens, HT-29, 48 h, 7 nM, control 100.
[8] abbreviates: Homo sapiens; HT-29, 48 h, 25 μM; control 100.

In general, IC50 refers to the concentration that inhibits the measured activity by half. Lower therefore signals greater potency. Molecule `COc1ccc(/C=C\c2cc(OC)c(OC)c(OC)c2)cc1OCC(=O)N[C@H](CO)C(=O)O` [Compound 6.5] registered a half-inhibitory concentration (IC50) in assay [1] (MCF7, 48 h, Table 1) of 12 ± 1 µM. For the same molecule, in assay [2] (HEK293, 48 h, Table 1), the IC50 is 14 ± 4 µM. Further, in the assay with purified tubulin, the “CrC (critical concentration)” value is given as 9.25 ± 0.16 µM. In the assay with A-549 cells (75 μM), the G0/G1 is 64%, the G2/M is given as 18% and the S is recorded as 18%. In addition, the “Effect on the cell cycle” value with A-549 cells is recorded as “do not exert any significant effect on the cells”. The mrna remaining at 10 µM with VEGF gene (setting [3]) was determined as 54%. In the assay with c-Myc gene (setting [3]), this molecule displayed a mrna remaining at 10 µM of 94%.

For `COc1ccc(/C=C\c2cc(OC)c(OC)c(OC)c2)cc1OCC(=O)N[C@@H](CCSC)C(=O)O` [Compound 4.9], it took 13 ± 2 µM to reach half-maximal inhibition in assay [1] (MCF7, 48 h, Table 1) (IC50). For the same molecule, the IC50 in assay [2] (HEK293, 48 h, Table 1) amounted to 40 ± 4 µM. Also, the “CrC (critical concentration)” value in the assay on purified tubulin was 8.6 ± 0.4 µM. In the assay with A-549 cells (75 μM), this molecule yielded a G0/G1 of 76%, a G2/M of 13% and an S of 11%. For the same molecule, the “Effect on the cell cycle” value with A-549 cells was “do not exert any significant effect on the cells”. Further, in the assay with VEGF gene (setting [4]), the “downregulation of VEGF gene expression” value is “more than 55%”. In addition, the mrna remaining at 25 µM in the assay on VEGF gene (setting [5]) is 37 to 55%. In the assay on c-Myc gene (setting [4]), the “downregulation of c-Myc gene expression” value was “more than 55%”. The molecule further yielded a mrna remaining at 25 µM in the assay with c-Myc gene (setting [5]) of 37%.

In assay [1] (MCF7, 48 h, Table 2), `COc1ccc(/C=C\c2cc(OC)c(OC)c(OC)c2)cc1NC(=O)[C@H](Cc1ccccc1)NC(=O)OCC1c2ccccc2-c2ccccc21` [Compound 7.5] returned an IC50 of 0.014 ± 0.004 µM. In assay [2] (HEK293, 48 h, Table 2), this molecule returned an IC50 of 0.0023 ± 0.002 µM. Besides, the “CrC (critical concentration)” value in the assay with purified tubulin worked out at 8.1 ± 1.6 µM. Further, in the assay with A-549 cells (2 µM), the G0/G1 is given as 34 ± 2%, the G2/M worked out at 46 ± 3% and the S is 20 ± 1%. The “downregulation of VEGF gene expression” value in the assay with VEGF gene (setting [4]) was “more than 60%”. This molecule gave a mrna remaining at 0.002 µM in the assay with VEGF gene (setting [6]) of 16%. The “downregulation of c-Myc gene expression” value in the assay on c-Myc gene (setting [4]) is “more than 60%”. Further, the mrna remaining at 0.002 µM in the assay on c-Myc gene (setting [6]) worked out at 40%.

Molecule `COc1ccc(/C=C\c2cc(OC)c(OC)c(OC)c2)cc1OCC(=O)N1CCC[C@@H]1C(=O)O` [Compound 6.4] gave an IC50 in assay [1] (MCF7, 48 h, Table 1) of 55 ± 13 µM. Further, inhibition in assay [2] (HEK293, 48 h, Table 1) was half-maximal at 53 ± 9 µM (IC50). Also, the “CrC (critical concentration)” value with purified tubulin came out at 10 ± 3 µM. In the assay on A-549 cells (75 μM), the G0/G1 came to 71%, the G2/M is 15% and the S came to 14%. The “Effect on the cell cycle” value in the assay on A-549 cells is on record as “do not exert any significant effect on the cells”. This molecule also returned a mrna remaining at 25 µM in the assay on VEGF gene (setting [5]) of 25%. This molecule also had a mrna remaining at 25 µM with c-Myc gene (setting [5]) of 81%.

On to `COc1ccc(/C=C\c2cc(OC)c(OC)c(OC)c2)cc1NC(=O)CNC(=O)OCC1c2ccccc2-c2ccccc21` [Compound 7.1], for which 0.0048 ± 0.0005 µM corresponded to half-maximal inhibition in assay [1] (MCF7, 48 h, Table 2) (IC50). For the same molecule, the IC50 in assay [2] (HEK293, 48 h, Table 2) turned out to be 0.0035 ± 0.0019 µM. In addition, in the assay with purified tubulin, the “CrC (critical concentration)” value was determined as 11 ± 4 µM. In the assay on A-549 cells (0.5 µM), this molecule displayed a G0/G1 of 28 ± 1%, a G2/M of 54 ± 1% and an S of 18 ± 2%. In the assay on VEGF gene (setting [7]), this molecule displayed a mrna remaining at 0.007 µM of 69%. The molecule also yielded a mrna remaining at 0.007 µM in the assay with c-Myc gene (setting [7]) of 58%.

`COc1ccc(/C=C\c2cc(OC)c(OC)c(OC)c2)cc1OCC(=O)N[C@H](Cc1ccccc1)C(=O)O` [Compound 6.3] gave an IC50 in assay [1] (MCF7, Table 1) of 43 ± 3 µM. This molecule also returned a 50% inhibitory concentration (IC50) in assay [2] (HEK293, Table 1) of 46 ± 6 µM. Also, in the assay on purified tubulin, the “CrC (critical concentration)” value stood at 9.2 ± 0.4 µM. Further, in the assay with A-549 cells (75 μM), the G0/G1 was found to be 74 ± 3%, the G2/M worked out at 14 ± 2% and the S was determined as 11 ± 6%. Further, the “Effect on the cell cycle” value in the assay with A-549 cells is “do not exert any significant effect on the cells”. Also, in the assay with VEGF gene (setting [8]), the mrna remaining at 25 µM was found to be 77%. In the assay with c-Myc gene (setting [8]), this molecule registered a mrna remaining at 25 µM of 55%.
